Experimental data from US20240358693A1, “METHODS OF TREATING PAIN” (Aisa Pharma, Inc., priority 2023, published 2024).

Test system: participants with SSc-RP
Assay: Average duration of weekly RP attacks (minutes)
Format: in vivo, human
From the text: The absolute change in average duration of weekly RP attacks from baseline to the end of each dosing period was and will be a secondary outcome variable. The sponsor-developed participant-informed diary was and will be used to record data. Average duration of weekly RP attacks is defined as the total duration of RP attacks divided by total number of RP attacks within the last 7 days of each dosing period. Total duration of RP attacks during the last 7 days of screening period divided by the total number of RP attacks will be used as baseline for the analysis of all periods. The variable will be calculated similar to frequency data as before.

[1] = Cilnidipine 20 mg, Excluding Outliers, ITT Population - Part A
[2] = Cilnidipine 20 mg, Excluding Outliers, by Baseline RCS, subgroup 1, ITT Population - Part A
[3] = Cilnidipine 20 mg, by Baseline RCS, subgroup 1, ITT Population - Part A
[4] = Pooled Cilnidipine 10 mg and Cilnidipine 10 mg + Tadalafil 5 mg, n=3, Excluding Outliers, ITT Part A
[5] = Pooled Cilnidipine 10 mg and Cilnidipine 10 mg + Tadalafil 5 mg, n=3, ITT Part A
[6] = Pooled Cilnidipine 10 mg and Cilnidipine 10 mg + Tadalafil 5 mg, Baseline RCS subgroup 1 (unnamed), ITT Part A
[7] = Pooled Cilnidipine 10 mg and Cilnidipine 10 mg + Tadalafil 5 mg, Baseline RCS subgroup 2 (unnamed), ITT Part A
[8] = Pooled Cilnidipine 10 mg and Cilnidipine 10 mg + Tadalafil 5 mg, Excluding Outliers, Baseline RCS subgroup 1 (unnamed), ITT Part A
[9] = Pooled Cilnidipine 10 mg and Cilnidipine 10 mg + Tadalafil 5 mg, Excluding Outliers, Baseline RCS subgroup 2 (unnamed), ITT Part A
[10] = Pooled Cilnidipine 10 mg and Cilnidipine 10 mg + Tadalafil 5 mg, Excluding Outliers, ITT Population - Part A
[11] = Pooled Cilnidipine 10 mg and Cilnidipine 10 mg + Tadalafil 5 mg, Excluding Outliers, by Baseline RCS, subgroup 1, ITT Population - Part A

SMILES: COCCOC(=O)C1=C(C)NC(C)=C(C(=O)OC/C=C/c2ccccc2)C1c1cccc([N+](=O)[O-])c1 (centres unmarked) [Cilnidipine, cilnidipine]
- Average Duration of Weekly RP Attacks (All Attacks) Change from Baseline, Median [1]: -1.09 min
- Average Duration of Weekly RP Attacks (All Attacks) Percent Change from Baseline, Mean [1]: −24.97%
- Average Duration of Weekly RP Attacks (All Attacks) Percent Change from Baseline, Median [1]: −24.97%
- Average Duration of Weekly RP Attacks (All Attacks), Mean [1]: 16.73 min
- Average Duration of Weekly RP Attacks (All Attacks), Median [1]: 16.73 min
- Average Duration of Weekly RP Attacks (All Attacks) Change from Baseline, Mean [2]: -1.09 min
- Average Duration of Weekly RP Attacks (All Attacks) Change from Baseline, Median [2]: -1.09 min
- Average Duration of Weekly RP Attacks (All Attacks) Percent Change from Baseline, Mean [2]: −24.97%
- Average Duration of Weekly RP Attacks (All Attacks) Percent Change from Baseline, Median [2]: −24.97%
- Average Duration of Weekly RP Attacks (All Attacks), Mean [2]: 16.73 min
- Average Duration of Weekly RP Attacks (All Attacks), Median [2]: 16.73 min
- Average Duration of Weekly RP Attacks (All Attacks) Change from Baseline, Mean (Cilnidipine 20 mg, ITT Part A): -1.09 min
- Average Duration of Weekly RP Attacks (All Attacks) Change from Baseline, Median (Cilnidipine 20 mg, ITT Part A): -1.09 min
- Average Duration of Weekly RP Attacks (All Attacks) Percent Change from Baseline, Mean (Cilnidipine 20 mg, ITT Part A): −24.97%
- Average Duration of Weekly RP Attacks (All Attacks) Percent Change from Baseline, Median (Cilnidipine 20 mg, ITT Part A): −24.97%
- Average Duration of Weekly RP Attacks (All Attacks), Mean (Cilnidipine 20 mg, ITT Part A): 16.73 min
- Average Duration of Weekly RP Attacks (All Attacks), Median (Cilnidipine 20 mg, ITT Part A): 16.73 min
- Average Duration of Weekly RP Attacks (All Attacks) Change from Baseline, Mean [3]: -1.09 min
- Average Duration of Weekly RP Attacks (All Attacks) Change from Baseline, Median [3]: -1.09 min
- Average Duration of Weekly RP Attacks (All Attacks) Percent Change from Baseline, Mean [3]: −24.97%
- Average Duration of Weekly RP Attacks (All Attacks) Percent Change from Baseline, Median [3]: −24.97%
- Average Duration of Weekly RP Attacks (All Attacks), Mean [3]: 16.73 min
- Average Duration of Weekly RP Attacks (All Attacks), Median [3]: 16.73 min
- Duration (Cilnidipine (20 mg) (n = 3)): −20%
- Mean % reduction in duration (Cilnidipine (20 mg) (n = 3)): 20.0%
- Mean duration of attack at baseline (Cilnidipine (20 mg) (n = 3)): 19.4
- Average Duration of Weekly Symptomatic RP Attacks, Change from Baseline, Mean [4]: -12.11 min
- Average Duration of Weekly Symptomatic RP Attacks, Change from Baseline, Median [4]: -16.74 min
- Average Duration of Weekly Symptomatic RP Attacks, Mean [4]: 29.46 min
- Average Duration of Weekly Symptomatic RP Attacks, Median [4]: 31.64 min
- Average Duration of Weekly Symptomatic RP Attacks, Percent Change from Baseline, Mean [4]: −22.40%
- Average Duration of Weekly Symptomatic RP Attacks, Percent Change from Baseline, Median [4]: −33.84%
- Average Duration of Weekly Symptomatic RP Attacks, Change from Baseline, Mean [5]: -12.11 min
- Average Duration of Weekly Symptomatic RP Attacks, Change from Baseline, Median [5]: -16.74 min
- Average Duration of Weekly Symptomatic RP Attacks, Mean [5]: 29.46 min
- Average Duration of Weekly Symptomatic RP Attacks, Median [5]: 31.64 min
- Average Duration of Weekly Symptomatic RP Attacks, Percent Change from Baseline, Mean [5]: −22.40%
- Average Duration of Weekly Symptomatic RP Attacks, Percent Change from Baseline, Median [5]: −33.84%
- Average Duration of Weekly Symptomatic RP Attacks, Change from Baseline, Mean [6]: -8.26 min
- Average Duration of Weekly Symptomatic RP Attacks, Change from Baseline, Median [6]: -8.26 min
- Average Duration of Weekly Symptomatic RP Attacks, Mean [6]: 24.82 min
- Average Duration of Weekly Symptomatic RP Attacks, Median [6]: 24.82 min
- Average Duration of Weekly Symptomatic RP Attacks, Percent Change from Baseline, Mean [6]: −16.67%
- Average Duration of Weekly Symptomatic RP Attacks, Percent Change from Baseline, Median [6]: −16.67%
- Average Duration of Weekly Symptomatic RP Attacks, Change from Baseline, Mean [7]: -19.82 min
- Average Duration of Weekly Symptomatic RP Attacks, Change from Baseline, Median [7]: -19.82 min
- Average Duration of Weekly Symptomatic RP Attacks, Mean [7]: 38.75 min
- Average Duration of Weekly Symptomatic RP Attacks, Median [7]: 38.75 min
- Average Duration of Weekly Symptomatic RP Attacks, Percent Change from Baseline, Mean [7]: −33.84%
- Average Duration of Weekly Symptomatic RP Attacks, Percent Change from Baseline, Median [7]: −33.84%
- Average Duration of Weekly Symptomatic RP Attacks, Change from Baseline, Mean [8]: -8.26 min
- Average Duration of Weekly Symptomatic RP Attacks, Change from Baseline, Median [8]: -8.26 min
- Average Duration of Weekly Symptomatic RP Attacks, Mean [8]: 24.82 min
- Average Duration of Weekly Symptomatic RP Attacks, Median [8]: 24.82 min
- Average Duration of Weekly Symptomatic RP Attacks, Percent Change from Baseline, Mean [8]: −16.67%
- Average Duration of Weekly Symptomatic RP Attacks, Percent Change from Baseline, Median [8]: −16.67%
- Average Duration of Weekly Symptomatic RP Attacks, Change from Baseline, Mean [9]: -19.82 min
- Average Duration of Weekly Symptomatic RP Attacks, Change from Baseline, Median [9]: -19.82 min
- Average Duration of Weekly Symptomatic RP Attacks, Mean [9]: 38.75 min
- Average Duration of Weekly Symptomatic RP Attacks, Median [9]: 38.75 min
- Average Duration of Weekly Symptomatic RP Attacks, Percent Change from Baseline, Mean [9]: −33.84%
- Average Duration of Weekly Symptomatic RP Attacks, Percent Change from Baseline, Median [9]: −33.84%
- Average Duration of Weekly RP Attacks (All Attacks) Change from Baseline, Mean [10]: -9.54 min
- Average Duration of Weekly RP Attacks (All Attacks) Change from Baseline, Median [10]: -8.48 min
- Average Duration of Weekly RP Attacks (All Attacks) Percent Change from Baseline, Mean [10]: −19.10%
- Average Duration of Weekly RP Attacks (All Attacks) Percent Change from Baseline, Median [10]: −21.20%
- Average Duration of Weekly RP Attacks (All Attacks), Mean [10]: 27.90 min
- Average Duration of Weekly RP Attacks (All Attacks), Median [10]: 31.52 min
- Average Duration of Weekly RP Attacks (All Attacks) Change from Baseline, Mean [11]: -4.13 min
- Average Duration of Weekly RP Attacks (All Attacks) Change from Baseline, Median [11]: -4.13 min
- Average Duration of Weekly RP Attacks (All Attacks) Percent Change from Baseline, Mean [11]: −9.97%
- Average Duration of Weekly RP Attacks (All Attacks) Percent Change from Baseline, Median [11]: −9.97%
- Average Duration of Weekly RP Attacks (All Attacks), Mean [11]: 24.76 min
- Average Duration of Weekly RP Attacks (All Attacks), Median [11]: 24.76 min
